Patent publication US20080234304A1, “N3-Pyridyl-Thiamine And Its Use In Cancer Treatments” (AVEO PHARMACEUTICALS, INC., priority 2004, published 2008)

Assays:
[1] = target: purified apotransketolase; test: inhibition of purified apotransketolase; assay type: biochemical
Source text: N3PT is a thiamine (vitamin B1) derivative. Thiamine pyrophosphate (TPP) is a co-factor for catalysis by the enzyme transketolase (as well as for the enzymes kGDH and PDH). […] A standard method for isolating and measuring the IC50 of apotransketolase is described in Konig et al., J. Biol. Chem. 269: 10879-82 (1994).

[2] = target: T1, alpha-ketoglutarate dehydrogenase (kGDH) (Homo sapiens, UniProt Q02218); test: kGDH activity in extracts from cells incubated with N3PT; assay type: cell-based; conditions: extracts from cells incubated with increasing concentrations of N3PT; read-out: IC50 kGDH (selectivity comparison, FIG. 9)
T1 construct: endogenous in cells
T1 sequence (Q02218 41-1023): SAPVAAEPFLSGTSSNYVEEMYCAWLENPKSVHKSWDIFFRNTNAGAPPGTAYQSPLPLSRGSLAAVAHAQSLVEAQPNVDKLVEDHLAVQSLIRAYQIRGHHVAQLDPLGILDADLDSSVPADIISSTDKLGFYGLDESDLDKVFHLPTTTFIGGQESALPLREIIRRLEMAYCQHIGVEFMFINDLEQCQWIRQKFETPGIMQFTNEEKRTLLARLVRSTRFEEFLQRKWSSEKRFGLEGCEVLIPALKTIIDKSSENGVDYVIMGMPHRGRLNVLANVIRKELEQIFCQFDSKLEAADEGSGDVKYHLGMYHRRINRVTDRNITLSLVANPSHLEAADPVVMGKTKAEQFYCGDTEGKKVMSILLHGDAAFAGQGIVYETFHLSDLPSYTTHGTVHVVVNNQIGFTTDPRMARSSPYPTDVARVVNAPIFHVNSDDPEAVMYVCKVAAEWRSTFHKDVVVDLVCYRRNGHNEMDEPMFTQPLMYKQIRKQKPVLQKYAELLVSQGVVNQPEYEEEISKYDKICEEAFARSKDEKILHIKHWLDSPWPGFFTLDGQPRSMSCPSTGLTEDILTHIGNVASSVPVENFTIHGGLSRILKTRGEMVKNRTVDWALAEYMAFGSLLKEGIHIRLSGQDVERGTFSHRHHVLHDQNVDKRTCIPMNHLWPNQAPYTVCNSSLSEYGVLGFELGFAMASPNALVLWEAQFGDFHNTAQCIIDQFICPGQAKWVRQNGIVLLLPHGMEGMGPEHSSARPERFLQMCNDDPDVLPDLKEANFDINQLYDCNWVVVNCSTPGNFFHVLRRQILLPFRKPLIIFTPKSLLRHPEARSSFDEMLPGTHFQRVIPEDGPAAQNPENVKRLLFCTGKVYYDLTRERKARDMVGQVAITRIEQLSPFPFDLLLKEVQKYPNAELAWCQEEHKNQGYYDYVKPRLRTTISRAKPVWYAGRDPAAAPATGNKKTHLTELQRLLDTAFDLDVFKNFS
T1 sequence (P36957 68-453 partner): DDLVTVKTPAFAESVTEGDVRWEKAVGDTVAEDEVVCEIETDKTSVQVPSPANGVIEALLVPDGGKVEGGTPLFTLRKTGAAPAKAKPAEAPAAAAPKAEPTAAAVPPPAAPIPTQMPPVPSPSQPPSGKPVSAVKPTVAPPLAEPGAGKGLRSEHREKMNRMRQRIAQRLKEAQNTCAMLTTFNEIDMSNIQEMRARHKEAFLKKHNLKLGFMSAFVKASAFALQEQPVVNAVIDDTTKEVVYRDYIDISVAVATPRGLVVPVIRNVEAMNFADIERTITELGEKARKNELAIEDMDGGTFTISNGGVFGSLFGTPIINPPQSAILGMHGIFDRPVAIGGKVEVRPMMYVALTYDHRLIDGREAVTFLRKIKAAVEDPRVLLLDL
T1 sequence (P09622 36-509 partner): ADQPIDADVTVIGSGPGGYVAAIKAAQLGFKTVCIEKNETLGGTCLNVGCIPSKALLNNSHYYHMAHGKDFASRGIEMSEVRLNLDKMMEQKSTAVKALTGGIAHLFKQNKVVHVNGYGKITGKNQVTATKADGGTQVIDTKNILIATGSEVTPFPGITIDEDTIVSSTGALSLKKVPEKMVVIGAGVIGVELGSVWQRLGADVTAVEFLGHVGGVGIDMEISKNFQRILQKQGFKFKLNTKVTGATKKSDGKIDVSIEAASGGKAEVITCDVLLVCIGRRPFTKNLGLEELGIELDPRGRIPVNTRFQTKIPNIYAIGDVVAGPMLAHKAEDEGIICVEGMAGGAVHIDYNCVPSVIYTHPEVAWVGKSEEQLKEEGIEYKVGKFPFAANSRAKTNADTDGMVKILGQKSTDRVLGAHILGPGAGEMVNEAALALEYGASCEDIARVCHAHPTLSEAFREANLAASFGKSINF
Description: TK, kGDH and PDH enzymes all utilize thiamine pyrophosphate (TPP) as a co-factor for their catalysis. Conventional cell culture media (e.g., DMEM, RPMI) have high levels of thiamine (12 μM and 3 μM, respectively). High thiamine levels will mask the inhibitory effect of N3PT. Thus, to measure the IC50 of N3PT, a thiamine depleted DMEM, containing all the ingredients of normal DMEM except for thiamine (HyClone, custom order), was used. Thiamine-depleted media (TDM) is made up with thiamine-depleted DMEM, 10% FBS, which contains low amounts of thiamine (estimated to be ˜3-5 nM) and 1% Penicillin-streptomycin.
Log-phase growing cells were trypsinized and resuspended in TDM. Twenty-four hours after seeding, 5 μl of 20× N3PT compound stock solution was added to the cells in 95 μl of TDM. After increasing times of N3PT treatment, cells were either subjected to enzymatic reactions directly or were frozen at −20° C. for future assays. […] TK activities could be measured from ≧5000 cells in most cell lines tested. […]
Enzymatic inhibition was expressed as percent of control cells that were not treated with compounds. […]

LAMA84 = test: inhibition of proliferation of LAMA84 cells; assay type: cell-based; conditions: LAMA84 chronic myeloid leukemia cell line
Description: (§1) The ability of N3PT to inhibit proliferation of these cell lines was then tested. LAMA84 was the most sensitive to N3PT, displaying an IC50 of 0.3 μM. The other cell lines, HCT116 and K562, were less sensitive, displaying an IC50 of approximately 2 μM in both cases. LAMA84 also had the highest TK activity (per cell) among these three cancer lines.

HCT116 = test: inhibition of proliferation of HCT116 cells; assay type: cell-based, human; conditions: HCT116 colon carcinoma
Description: as §1

- IC50 [1]: 21 nM
- IC50 [2]: 86 nM
- IC50 (HCT116): ~2000 nM
SMILES: Cc1ccc(C[n+]2csc(CCO)c2C)c(N)n1 [N3PT, 3-[(2-amino-6-methyl-3-pyridinyl)methyl]-5-(2-hydroxyethyl)-4-methyl thiazolium]
- IC50 (LAMA84): 300 nM
